# Columns and labels:
# Type in all cases: in vivo
# [1] = system: broad leaf weeds (Lindernia pyxidaria and Monochoria vaginalis); experiment: Test Example 1: herbicidal effect test by treatment of rice paddy soil (immediately after seeding); settings: 120 g/10a active ingredient, dry weight vs untreated area, 14 days after treatment
# Description: (§1) Herbicidal Effect Test by Treatment of Rice Paddy Soil
# (§2) Wagner pots with an area of 1/10000 ares were filled with a paddy soil, and after adding water, a compound fertilizer (N:P:K=17:17:17) was added, followed by soil puddling. Then, Echinochloa crus-galli, broad leaf weeds (Lindernia pyxidaria and Monochoria vaginalis) and Scirpus juncoides, 30 seeds each, were sown in a depth of 0 to 1 cm. Water was poured immediately after seeding, and the water depth was kept at about 3 cm. The subsequent management was conducted in a glass greenhouse. Immediately after that, emulsions prepared using the compounds in Table 3 below according to Formulation Example 5 were diluted with water, and a certain amount of the water-diluted agent solutions were dropped. The converted amount of the applied active ingredient corresponded to 120 g per 10 ares.
# (§3) This test was conducted in a double system per one agent solution concentration area, and the herbicidal rates (%) were determined by the following equation (Math. 1) on 14 days after the treatment with the agents. Herbicidal Rate (%)={1-(Average Dry Weight (g) of Plant of Treated Area)/(Average Dry Weight (g) of Plant of Untreated Area)}×100 [Math. 1]
# (§4) The compound numbers in Table 3 are the same as those in Table 1 and Table 2 above.
# [2] = system: Scirpus juncoides; experiment: as above; settings: 120 g/10a active ingredient, dry weight vs untreated area, 14 days after treatment
# Description: as §1, §2, §3, §4
# [3] = system: Echinochloa crus-galli; experiment: as above; settings: 120 g/10a active ingredient, dry weight vs untreated area, 14 days after treatment
# Description: as §1, §2, §3, §4
# [4] = system: broad leaf weeds (Lindernia pyxidaria and Monochoria vaginalis); experiment: Test Example 2: herbicidal effect test by treatment during growing period in paddy rice cultivation (seven days after seeding); settings: 120 g/10a active ingredient, assessed 14 days after treatment, dry weight vs untreated area
# Description: as §3
# (§5) Herbicidal Effect Test by Treatment During Growing Period in Paddy Rice Cultivation
# as §2, with “was mixed,” for “was added,”, “greenhouse. Emulsions” for “greenhouse. Immediately after that, emulsions”, “Table 4” for “Table 3”, “with water seven days after seeding,” for “with water,”, “ares. The test was conducted in a double system per one agent solution concentration area, and the herbicidal rates (%) were determined by the equation (Math. 1) on 14 days after the treatment with the agents. […] The compound numbers in Table 4 are the same as those in Table 1 and Table 2 above.” for “ares.”
# [5] = system: Scirpus juncoides; experiment: as above; settings: 120 g/10a active ingredient, assessed 14 days after treatment, dry weight vs untreated area
# Description: as §3, §5
# as §2, with “was mixed,” for “was added,”, “greenhouse. Emulsions” for “greenhouse. Immediately after that, emulsions”, “Table 4” for “Table 3”, “with water seven days after seeding,” for “with water,”, “ares. The test was conducted in a double system per one agent solution concentration area, and the herbicidal rates (%) were determined by the equation (Math. 1) on 14 days after the treatment with the agents. […] The compound numbers in Table 4 are the same as those in Table 1 and Table 2 above.” for “ares.”
# [6] = system: Echinochloa crus-galli; experiment: as above; settings: 120 g/10a active ingredient, assessed 14 days after treatment, dry weight vs untreated area
# Description: as §3, §5
# as §2, with “was mixed,” for “was added,”, “greenhouse. Emulsions” for “greenhouse. Immediately after that, emulsions”, “Table 4” for “Table 3”, “with water seven days after seeding,” for “with water,”, “ares. The test was conducted in a double system per one agent solution concentration area, and the herbicidal rates (%) were determined by the equation (Math. 1) on 14 days after the treatment with the agents. […] The compound numbers in Table 4 are the same as those in Table 1 and Table 2 above.” for “ares.”
Structure (SMILES),Herbicidal rate (%) Lindernia pyxidaria [1],Herbicidal rate (%) Monochoria vaginalis [1],Herbicidal rate (%) Scirpus juncoides [2],Herbicidal rate (%) Echinochloa crus-galli [3],Herbicidal rate (%) Lindernia pyxidaria [4],Herbicidal rate (%) Monochoria vaginalis [4],Herbicidal rate (%) Scirpus juncoides [5],Herbicidal rate (%) Echinochloa crus-galli [6]
"CCC(C)Cn1oc(=O)c(Cc2ccccc2N(C(=O)OCc2ccccc2)S(=O)(=O)C(F)(F)F)c1C (single isomer, unassigned) [1-788 (TLC top)]",60%,50%,80%,80%,40%,40%,50%,40%
Cc1c(Cc2cc(F)ccc2NS(=O)(=O)C(F)(F)F)c(=O)on1Cc1ccccc1 [Compound 1-31],90%,80%,90%,90%,60%,80%,70%,50%
Cc1c(Cc2c(Cl)cccc2NS(=O)(=O)C(F)(F)F)c(=O)on1C(C)C [Compound 1-46],80%,80%,90%,60%,40%,40%,60%,40%
Cc1c(Cc2c(Cl)cccc2N(S(=O)(=O)C(F)(F)F)S(=O)(=O)C(F)(F)F)c(=O)on1C(C)C [Compound 1-47],70%,70%,80%,40%,40%,40%,70%,40%
CC(C)c1c(Cc2ccccc2NS(=O)(=O)C(F)(F)F)c(=O)on1C(C)C [Compound 1-68],90%,80%,90%,80%,70%,80%,80%,40%
CC(C)c1c(Cc2ccccc2N(S(=O)(=O)C(F)(F)F)S(=O)(=O)C(F)(F)F)c(=O)on1C(C)C [Compound 1-69],70%,70%,90%,80%,40%,60%,60%,60%
Cn1oc(=O)c(Cc2ccccc2NS(=O)(=O)C(F)(F)F)c1C(F)(F)F [Compound 1-78],50%,50%,70%,40%,40%,60%,80%,40%
CC(C)n1oc(=O)c(Cc2ccccc2N(S(=O)(=O)C(F)(F)F)S(=O)(=O)C(F)(F)F)c1C1CC1 [Compound 1-84],70%,70%,80%,80%,40%,40%,70%,40%
C=CCn1oc(=O)c(Cc2ccccc2NS(=O)(=O)C(F)(F)F)c1C [Compound 1-135],90%,60%,90%,90%,40%,60%,90%,80%
Cc1c(Cc2ccccc2NS(=O)(=O)C(F)(F)F)c(=O)on1CCOC(C)C [Compound 1-155],60%,60%,80%,90%,60%,60%,80%,100%
CSCCCn1oc(=O)c(Cc2ccccc2NS(=O)(=O)C(F)(F)F)c1C [Compound 1-167],90%,80%,90%,100%,90%,90%,90%,90%
Cc1c(Cc2ccccc2NS(=O)(=O)C(F)(F)F)c(=O)on1Cc1ccccc1F [Compound 1-181],100%,90%,90%,90%,80%,90%,90%,50%
Cc1c(Cc2ccccc2N(S(=O)(=O)C(F)(F)F)S(=O)(=O)C(F)(F)F)c(=O)on1Cc1cccc(F)c1 [Compound 1-1013],90%,90%,90%,40%,,,,
Cc1c(Cc2ccccc2N(S(=O)(=O)C(F)(F)F)S(=O)(=O)C(F)(F)F)c(=O)on1Cc1ccc(C(F)(F)F)cc1 [Compound 1-1021],40%,40%,60%,40%,,,,
Cc1c(Cc2ccccc2N(S(=O)(=O)C(F)(F)F)S(=O)(=O)C(F)(F)F)c(=O)on1Cc1ccc(F)c(Cl)c1 [Compound 1-1029],60%,60%,60%,60%,,,,
